One experiment has as its target JAK1 (Homo sapiens (Human), UniProt P23458). The experiment in a line: Biochemical JAK kinase assay (LanthaScreen), JAK1. The conditions noted are these: for Ki: read-out: JAK1 pKi (converted). Put shortly: (§1)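 LanthaScreen format: phospho-STAT1 (pTyr701) detected with 2 nM Tb antibody after 10 mM EDTA quench. Kinase step used Km-level ATP and 200 nM STAT1 peptide, 1 h at ambient after 1 h pre-incubation. Inhibition fitted to IC50, reported as pKi.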
Background: TR-FRET usually uses a lanthanide donor and a delayed reading to cut background.

Another experiment addresses JAK2 (Homo sapiens (Human), UniProt O60674). The experiment in a line: Biochemical JAK kinase assay (LanthaScreen), JAK2. The conditions noted are these: for Ki: read-out: JAK2 pKi (converted). Put shortly:
as §1

For experiment [1], the system named is IL-13 induced STAT6 phosphorylation in BEAS-2B human lung epithelial cells. Kind of experiment: Cellular JAKI potency assay (BEAS-2B). The experiment is classed as cell-based. The conditions noted are these: Homo sapiens, BEAS-2B, BEAS-2B cells, read-out: BEAS2B pIC50 (converted). The gist of the method: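 BEAS-2B cells were preincubated with compound (0.1% DMSO) in HBSS/HEPES/BSA for 1 h at 37 °C, then stimulated with IL-13 (80 ng/mL before addition) for 30 min. After lysis, pSTAT6 (Tyr641) was quantified by AlphaLISA SureFire; IC50 from a 4-parameter fit of percent inhibition, reported as pIC50.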

Chain of JAK1 (P23458 whole entry): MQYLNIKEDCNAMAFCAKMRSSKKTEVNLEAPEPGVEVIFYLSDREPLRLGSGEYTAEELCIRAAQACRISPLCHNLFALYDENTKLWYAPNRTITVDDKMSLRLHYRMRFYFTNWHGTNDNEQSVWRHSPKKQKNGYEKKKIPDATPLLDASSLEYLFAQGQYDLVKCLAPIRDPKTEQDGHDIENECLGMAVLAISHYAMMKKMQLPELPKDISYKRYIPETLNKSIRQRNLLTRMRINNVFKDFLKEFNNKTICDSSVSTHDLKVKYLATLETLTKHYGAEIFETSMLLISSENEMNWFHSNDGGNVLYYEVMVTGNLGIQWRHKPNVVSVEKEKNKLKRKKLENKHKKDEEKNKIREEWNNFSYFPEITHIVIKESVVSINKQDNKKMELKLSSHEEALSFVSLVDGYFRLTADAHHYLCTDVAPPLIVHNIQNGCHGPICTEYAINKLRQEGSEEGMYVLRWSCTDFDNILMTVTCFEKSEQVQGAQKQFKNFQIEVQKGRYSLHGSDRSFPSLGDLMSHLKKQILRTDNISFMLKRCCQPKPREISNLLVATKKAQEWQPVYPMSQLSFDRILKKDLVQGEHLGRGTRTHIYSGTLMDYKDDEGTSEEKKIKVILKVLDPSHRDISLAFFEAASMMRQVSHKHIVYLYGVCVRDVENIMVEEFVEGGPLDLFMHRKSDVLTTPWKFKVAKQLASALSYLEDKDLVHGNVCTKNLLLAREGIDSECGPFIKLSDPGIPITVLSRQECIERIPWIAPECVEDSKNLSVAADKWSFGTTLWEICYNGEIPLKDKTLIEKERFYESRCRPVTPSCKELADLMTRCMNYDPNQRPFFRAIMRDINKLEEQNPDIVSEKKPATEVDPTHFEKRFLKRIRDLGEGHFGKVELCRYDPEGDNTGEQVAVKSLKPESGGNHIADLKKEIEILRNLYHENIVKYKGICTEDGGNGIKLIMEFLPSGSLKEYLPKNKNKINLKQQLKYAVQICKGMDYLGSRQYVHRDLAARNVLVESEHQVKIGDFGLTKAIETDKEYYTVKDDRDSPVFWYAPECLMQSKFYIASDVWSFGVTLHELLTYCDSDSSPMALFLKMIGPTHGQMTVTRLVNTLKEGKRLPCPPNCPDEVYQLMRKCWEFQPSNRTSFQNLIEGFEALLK
Chain of JAK2 (O60674 whole entry): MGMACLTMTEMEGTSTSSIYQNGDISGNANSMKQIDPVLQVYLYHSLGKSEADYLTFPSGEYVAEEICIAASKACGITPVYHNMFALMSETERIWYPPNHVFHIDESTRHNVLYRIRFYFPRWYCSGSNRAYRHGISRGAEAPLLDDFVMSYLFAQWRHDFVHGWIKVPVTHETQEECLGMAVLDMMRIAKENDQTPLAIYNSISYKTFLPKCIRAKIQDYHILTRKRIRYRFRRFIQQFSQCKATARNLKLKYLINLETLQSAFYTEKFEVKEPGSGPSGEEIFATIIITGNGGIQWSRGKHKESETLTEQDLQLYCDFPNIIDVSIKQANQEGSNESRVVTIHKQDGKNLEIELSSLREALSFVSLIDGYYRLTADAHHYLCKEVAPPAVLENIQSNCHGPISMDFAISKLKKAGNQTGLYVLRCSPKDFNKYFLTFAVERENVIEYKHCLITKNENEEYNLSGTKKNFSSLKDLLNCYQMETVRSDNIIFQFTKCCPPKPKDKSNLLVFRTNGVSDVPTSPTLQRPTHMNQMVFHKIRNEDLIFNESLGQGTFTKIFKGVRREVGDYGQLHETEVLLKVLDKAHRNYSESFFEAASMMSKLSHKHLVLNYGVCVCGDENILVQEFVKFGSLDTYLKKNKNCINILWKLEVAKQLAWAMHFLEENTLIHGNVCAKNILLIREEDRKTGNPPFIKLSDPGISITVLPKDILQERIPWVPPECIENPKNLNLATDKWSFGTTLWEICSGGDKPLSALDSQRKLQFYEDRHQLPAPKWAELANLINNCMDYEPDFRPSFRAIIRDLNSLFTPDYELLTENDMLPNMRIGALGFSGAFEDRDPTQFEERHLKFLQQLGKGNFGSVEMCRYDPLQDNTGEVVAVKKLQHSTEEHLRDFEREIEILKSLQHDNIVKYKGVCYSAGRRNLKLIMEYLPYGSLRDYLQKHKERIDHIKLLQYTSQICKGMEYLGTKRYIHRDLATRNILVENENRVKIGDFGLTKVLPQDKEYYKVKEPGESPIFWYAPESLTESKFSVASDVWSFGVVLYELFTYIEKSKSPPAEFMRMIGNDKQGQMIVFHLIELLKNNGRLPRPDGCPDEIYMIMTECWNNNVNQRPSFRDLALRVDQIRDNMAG

As to `CCc1cc(O)ccc1-c1ccc2c(-c3nc(C4=CCN(CC(=O)NC)C4)c[nH]3)n[nH]c2c1` [Example 93], the Ki at JAK1 was 0.1 to 1 nM. Also, on JAK2, the “JAK2 pKi” value is “A (A represents a pKi value ≥10 (Ki≤0.1 nM))”. Also, the IC50 in experiment [1] was 3.16 to 10 nM.
As for `CCc1cc(O)ccc1-c1ccc2c(-c3nc(C4=C[C@H](CO)N(C5COC5)C4)c[nH]3)n[nH]c2c1F` [Example 273], the Ki at JAK1 is 0.1 to 1 nM. Further, the “JAK2 pKi” value on JAK2 is given as “A (A represents a pKi value ≥10 (Ki≤0.1 nM))”. In addition, in experiment [1], the IC50 is 10 to 31.6 nM.
For the compound `CCc1cc(O)ccc1-c1ccc2c(-c3nc(C4=CCN(CCc5ccccc5)C4)c[nH]3)n[nH]c2c1` [Example 141], the Ki on JAK1 and on JAK2 was 0.1 to 1 nM each time. Besides, the IC50 in experiment [1] is 100 to 316 nM.
Consider `CCc1cc(O)ccc1-c1ccc2c(-c3nc(C4=CCN[C@H](C)C4)c[nH]3)n[nH]c2c1F` [Example 319], for which the Ki at JAK1 and on JAK2 was 0.1 to 1 nM throughout. Also, the IC50 in experiment [1] is 10 to 31.6 nM.
As for `CCc1cc(O)ccc1-c1ccc2c(-c3nc(C4=CCN(CCC(=O)NC)C4)c[nH]3)n[nH]c2c1F` [Example 342], the Ki on JAK1 and on JAK2 was 0.1 to 1 nM in each case. Also, the IC50 in experiment [1] was 10 to 31.6 nM.
As to `CCc1cc(O)ccc1-c1ccc2c(-c3nc(C4=CCN([C@H]5CC[C@@](C)(O)CC5)C4)c[nH]3)n[nH]c2c1F` [Example 341], the “JAK1 pKi” value on JAK1 was “A (A represents a pKi value ≥10 (Ki≤0.1 nM))”. For the same compound, on JAK2, the “JAK2 pKi” value is listed as “A (A represents a pKi value ≥10 (Ki≤0.1 nM))”. For the same compound, the IC50 in experiment [1] is 10 to 31.6 nM.
As to `CCc1cc(O)ccc1-c1ccc2c(-c3nc(C4=CCCN(CCS(C)(=O)=O)C4)c[nH]3)n[nH]c2c1` [Example 87], the Ki on JAK1 is 0.1 to 1 nM. On JAK2, the “JAK2 pKi” value was “A (A represents a pKi value ≥10 (Ki≤0.1 nM))”. The IC50 in experiment [1] was 10 to 31.6 nM.
In the case of `CCc1cc(O)ccc1-c1ccc2c(-c3nc(C4=CCN(Cc5cn[nH]c5)CC4)c[nH]3)n[nH]c2c1` [Example 132], the “JAK1 pKi” value on JAK1 is recorded as “A (A represents a pKi value ≥10 (Ki≤0.1 nM))”. The “JAK2 pKi” value on JAK2 was “A (A represents a pKi value ≥10 (Ki≤0.1 nM))”. Besides, the IC50 in experiment [1] is 3.16 to 10 nM.
Consider `CCc1cc(O)ccc1-c1ccc2c(-c3nc(C4=C[C@@H](CO)NC4)c[nH]3)n[nH]c2c1` [Example 240], for which the Ki on JAK1 and on JAK2 was 0.1 to 1 nM throughout. Moreover, the IC50 in experiment [1] was 31.6 to 100 nM.
Take `CCc1cc(O)ccc1-c1ccc2c(-c3nc(C4=CCN(CCN5CCNC5=O)C4)c[nH]3)n[nH]c2c1` [Example 127]: the Ki on JAK1 and at JAK2 was 0.1 to 1 nM each time. The IC50 in experiment [1] was 10 to 31.6 nM.
For the compound `CCc1cc(O)ccc1-c1ccc2c(-c3nc(C4=CCN(Cc5c[nH]nn5)C4)c[nH]3)n[nH]c2c1F` [Example 146], the Ki on JAK1 and at JAK2 was 0.1 to 1 nM throughout. Besides, the IC50 in experiment [1] was 10 to 31.6 nM.
For `CCc1cc(O)ccc1-c1ccc2c(-c3nc(C4=CCCN(CCS(C)(=O)=O)C4)c[nH]3)n[nH]c2c1F` [Example 91], the Ki on JAK1 and on JAK2 was 0.1 to 1 nM each time. For the same compound, in experiment [1], the IC50 was 10 to 31.6 nM.
Turning to `CCc1cc(O)ccc1-c1ccc2c(-c3nc(C4=CC[C@H](C)N(CCCOC)C4)c[nH]3)n[nH]c2c1F` [Example 266], the Ki on JAK1 and on JAK2 was 0.1 to 1 nM throughout. Further, the IC50 in experiment [1] was 10 to 31.6 nM.
Take `CCc1cc(O)ccc1-c1ccc2c(-c3nc(C4=CCN(Cc5cnc[nH]5)C4)c[nH]3)n[nH]c2c1` [Example 142]: the “JAK1 pKi” value on JAK1 is listed as “A (A represents a pKi value ≥10 (Ki≤0.1 nM))”. For the same compound, at JAK2, the “JAK2 pKi” value is “A (A represents a pKi value ≥10 (Ki≤0.1 nM))”. Moreover, the IC50 in experiment [1] is 10 to 31.6 nM.
Regarding `CCc1cc(O)ccc1-c1ccc2c(-c3nc(C4=CCN(CCN5CCCC5=O)CC4)c[nH]3)n[nH]c2c1F` [Example 119], the Ki on JAK1 and on JAK2 was 0.1 to 1 nM in each case. In experiment [1], the IC50 is 10 to 31.6 nM.
With `CCc1cc(O)ccc1-c1ccc2c(-c3nc(C4=CC(c5ccccc5)NC4)c[nH]3)n[nH]c2c1F` (stereo not drawn) [Example 372], the Ki at JAK1 and at JAK2 was 1 to 10 nM each time. For the same compound, the IC50 in experiment [1] was 31.6 to 100 nM.

(Values after patent publication US20240092758A1, “IMIDAZOLO INDAZOLE COMPOUNDS AS JAK INHIBITORS” (Theravance Biopharma R&D IP, LLC, priority 2021, published 2024).)
